Results reported in patent USRE42013E1, “Macrocyclic modulators of the ghrelin receptor” (Tranzyme Pharma Inc., priority 2003, dated 2010).
pEC50, pKi: −log10 of the molar value. Like-named read-outs stand apart in the source and are kept apart here.

Columns and labels:
[1] = target: T1, human growth hormone secretagogue receptor (hGHS-R1a) (Homo sapiens, UniProt Q92847); assay: Competitive radioligand binding assay (ghrelin receptor), [125I]-ghrelin displacement
T1 construct: purchased PerkinElmer BioSignal #RBHGHSM, lot#1887; host or cells: HEK-293, stably transfected
T1 sequence (Q92847 whole entry): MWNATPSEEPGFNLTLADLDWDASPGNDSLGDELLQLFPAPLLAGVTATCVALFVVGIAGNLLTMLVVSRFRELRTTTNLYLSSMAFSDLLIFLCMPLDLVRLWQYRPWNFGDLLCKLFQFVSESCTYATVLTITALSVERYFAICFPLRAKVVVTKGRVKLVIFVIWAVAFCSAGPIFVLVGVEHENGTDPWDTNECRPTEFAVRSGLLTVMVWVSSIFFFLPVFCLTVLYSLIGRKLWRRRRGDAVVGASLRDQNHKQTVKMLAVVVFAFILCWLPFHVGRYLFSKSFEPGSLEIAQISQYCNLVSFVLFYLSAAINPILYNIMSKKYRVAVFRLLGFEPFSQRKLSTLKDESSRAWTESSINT
Description: The competitive binding assay at the human growth hormone secretagogue receptor (hGHS-R1a) was carried out analogously to assays described in the literature.
Multiscreen Harvest plates-GF/C (Millipore, #MAHFC1H60) • 4. […] Bottom seal (Millipore, #MATAH0P00) • 7. […] Binding Buffer: 25 mM Hepes (pH 7.4), 1 mM CaCl2, 5 mM MgCl2, 2.5 mM EDTA, 0.4% BSA Assay Volumes
Competition experiments were performed in a 300 μl filtration assay format. • 1. 220 μL of membranes diluted in binding buffer • 2. 40 μL of compound diluted in binding buffer • 3. […] Compound Handling
Compounds were provided frozen on dry ice at a stock concentration of 10 mM diluted in 100% DMSO and stored at −80° C. until the day of testing. On the test day, compounds were allowed to thaw at rt O/N and then diluted in assay buffer according to the desired test concentrations.
Plates were sealed with TopSeal-A, vortexed gently and incubated at rt for 30 min. The reaction was arrested by filtering samples through Multiscreen Harvest plates (pre-soaked in 0.5% polyethyleneimine) using a Tomtec Harvester, washed 9 times with 500 μL of cold 50 mM Tris-HCl (pH 7.4, 4° C.), and then plates were air-dried in a fumehood for 30 min. A bottom seal was applied to the plates prior to the addition of 25 μL of MicroScint-0 to each well. […] Results were expressed as counts per minute (cpm).
Data were analyzed by GraphPad Prism (GraphPad Software, San Diego, Calif.) using a variable slope non-linear regression analysis.
Compound structures for Tables 3A, 3B and 3D are presented with the various groups as defined for the general structure of formula I. For Tables 3B and 3D, in all entries, m, n and p are 0; X, Z1 and Z2 are each NH. For Table 3B, R1 is H for all entries. The tethers (T) are illustrated with the bonding to X and Z2 as indicated. The compounds themselves are shown for Table 3C.
• 1. […] Key Aspects of Method • 1. […] Results

[2] = target: human ghrelin receptor (hGHS-R1a) (Homo sapiens, UniProt Q92847); assay: cell-based
human ghrelin receptor (hGHS-R1a), sequence (Q92847 whole entry): as above
Description: B. Aequorin Functional Assay (Ghrelin Receptor)
This cell line is typically constructed by transfection of the human ghrelin receptor into CHO-K1 cells co-expressing Gα16 and the mitochondrially targeted Aequorin (Ref #ES-WT-A5). • 1. […] Assay buffer: DMEM (Dulbecco's Modified Eagles Medium) containing 0.1% BSA (bovine serum albumin; pH 7.0). • 3. Coelenterazine (Molecular Probes, Leiden, The Netherlands). Final test concentrations (N=8) for compounds of the invention: 10, 1, 0.3, 0.1, 0.03, 0.01, 0.003, 0.001 μM. Compound Handling
Assay plates were then prepared by appropriate dilution in DMEM medium containing 0.1% BSA. Under these conditions, the maximal final DMSO concentration in the assay was <0.6%.
AequoScreen™ cells were collected from culture plates with Ca^2+ and Mg^2+-free phosphate buffered saline (PBS) supplemented with 5 mM EDTA, pelleted for 2 min at 1000×g, re-suspended in DMEM—Ham's F12 containing 0.1% BSA at a density of 5×10^6 cells/mL, and incubated O/N at rt in the presence of 5 μM coelenterazinc. After loading, cells were diluted with assay buffer to a concentration of 5×10^5 cells/mL.
For agonist testing, 50 μL of the cell suspension was mixed with 50 μL of the appropriate concentration of test compound or ghrelin (reference agonist) in 96-well plates (duplicate samples). Ghrelin (reference agonist) was tested at several concentrations concurrently with the test compounds in order to validate the experiment. The emission of light resulting from receptor activation in response to ghrelin or test compounds was recorded using the Hamamatsu FDSS 6000 reader (Hamamatsu Photonics K.K., Japan).
Analysis and Expression of Results
Results were expressed as Relative Light Units (RLU). […] EC50, Hill slope and % Emax values are reported.
Key Aspects of Method • 1. Assay performed on CHO-K1 cells expressing the transfected, cloned human ghrelin receptor (hGHS-R1a) and Gα16. • 2. Suspended cells incubated O/N with coelenterazine. • 3. Stimulation of hGHS-R1a activates Gα16, causing intercellular Ca2+ release which ultimately leads to the oxidation of coelenterazine and the emission of a quantitative luminescent signal. • 4. Ghrelin was used as the positive control. • 5.

[3] = Table 4, binding at human ghrelin receptor, TFA salts unless otherwise noted, read-out: Ki
[4] = binding activity at the human ghrelin receptor, [125I]-ghrelin displacement, hGHS-R1a/HEK-293 membranes, read-out: Ki
[5] = Table 3B, binding at human ghrelin receptor, [125I]-ghrelin displacement, read-out: Ki
[6] = [125I]-ghrelin displacement, hGHS-R1a HEK-293 membranes, read-out: Binding Activity at the Human Ghrelin Receptor (Ki)

pKi [1, 4] | pKi [1, 5] | SMILES | other results
7.00 to 8.00 | – | CCCC1NCCOc2ccccc2C=CCNC(=O)C(Cc2ccccc2)NC(=O)C(C)N(C)C1=O (centres unmarked) [compound 39] | pKi [1, 3]: 8.00 to 10.00; pEC50 [2]: 6.00 to 7.00
– | > 7.00 | CCC(C)C1NCCOc2ccc(F)cc2CCCNC(=O)C(Cc2cccc(Cl)c2)NC(=O)C2(CCCC2)NC1=O (centres unmarked) [compound 382] | pKi [1, 3]: 7.00 to 8.00; pEC50 [2]: 6.00 to 7.00
– | 8.00 to 10.00 | CC1C(=O)NC(Cc2c(F)c(F)c(F)c(F)c2F)C(=O)NCCCc2ccccc2OCCNC(C2CC2)C(=O)N1C (centres unmarked) [compound 318] | pKi [1, 3]: 8.00 to 10.00; pEC50 [2]: 7.00 to 9.00
– | – | CCC(C)C1NCCCc2ccccc2C=CCCNC(=O)C(Cc2ccccc2)NC(=O)C(C)N(C)C1=O (centres unmarked) [compound 191] | pKi [1, 3]: 6.00 to 7.00; pKi [1, 6]: 5.00 to 7.00; pEC50 [2]: 6.00 to 7.00
5.00 to 7.00 | – | CCC(C)C1NCCOCC=CCCNC(=O)C(Cc2ccccc2)NC(=O)C(C)N(C)C1=O (centres unmarked) [compound 186] | pKi [1, 3]: 6.00 to 7.00; pEC50 [2]: 6.00 to 7.00
– | > 7.00 | CC1C(=O)NC(Cc2ccc(F)cc2)C(=O)NCCCc2cc(NS(C)(=O)=O)ccc2OCCNC(C2CC2)C(=O)N1C (centres unmarked) [compound 374] | pKi [1, 3]: 7.00 to 8.00; pEC50 [2]: 7.00 to 9.00
– | > 7.00 | CC1C(=O)NC(Cc2ccc(F)cc2)C(=O)NCC#Cc2ccccc2OCCNC(C2CC2)C(=O)N1C (centres unmarked) [compound 354] | pKi [1, 3]: 7.00 to 8.00; pEC50 [2]: 7.00 to 9.00
– | – | CCC(C)C1NCCOc2ccc(C(=O)O)cc2CCCNC(=O)C(Cc2ccccc2)NC(=O)C(C)N(C)C1=O (centres unmarked) [compound 197] | pKi [1, 3]: 6.00 to 7.00; pKi [1, 6]: 5.00 to 7.00; pEC50 [2]: < 6.00
7.00 to 8.00 | – | CCCCC1NCCOc2ccccc2CCCNC(=O)C(Cc2ccccc2)NC(=O)CN(C)C1=O (centres unmarked) [Compound 1] | pKi [1, 3]: 7.00 to 8.00; pEC50 [2]: 6.00 to 7.00
7.00 to 8.00 | – | CCC(C)C1NCc2ccccc2CCCCCNC(=O)C(Cc2ccccc2)NC(=O)C(C)N(C)C1=O (centres unmarked) [compound 38] | pKi [1, 3]: 7.00 to 8.00; pEC50 [2]: 6.00 to 7.00
– | – | CCC(C)C1NCCCc2ccccc2CCCCNC(=O)C(Cc2ccccc2)NC(=O)C(C)N(C)C1=O (centres unmarked) [compound 192] | pKi [1, 3]: 7.00 to 8.00; pKi [1, 6]: 7.00 to 8.00; pEC50 [2]: 6.00 to 7.00
7.00 to 8.00 | – | COc1ccc(CC2NC(=O)C3(CCCC3)NC(=O)C(CC(C)C)NCCOc3ccccc3C=CCNC2=O)cc1 (centres unmarked) [compound 156] | pKi [1, 3]: 7.00 to 8.00; pEC50 [2]: 7.00 to 9.00
7.00 to 8.00 | – | CCC(C)C1NCCOc2ccccc2CCCNC(=O)C(Cc2ccc(-c3ccccc3)cc2)NC(=O)C(C)N(C)C1=O (centres unmarked) [compound 28] | pKi [1, 3]: 7.00 to 8.00; pEC50 [2]: 7.00 to 9.00
– | 8.00 to 10.00 | CCC(C)C1NCCOc2ccccc2C2CC2CNC(=O)C(Cc2cccc(Cl)c2)NC(=O)C2(CCCC2)NC1=O (centres unmarked) [compound 388] | pKi [1, 3]: 8.00 to 10.00; pEC50 [2]: 7.00 to 9.00
– | > 7.00 | CCC(C)C1NCCOc2ccccc2C=CCNC(=O)C(Cc2cccc(C#N)c2)NC(=O)C2(CCCC2)NC1=O (centres unmarked) [compound 329] | –
< 5.00 | – | CCCC1NCCOc2ccccc2CCCNC(=O)C(CO)NC(=O)CN(C)C1=O (centres unmarked) [compound 54] | –
– | > 7.00 | CCC(C)C1NCCOc2ccccc2C=CCNC(=O)C(Cc2cccc(Br)c2)NC(=O)C2(CCCC2)NC1=O (centres unmarked) [compound 326] | –
7.00 to 8.00 | – | CCC(C)C1NCCOc2ccccc2CCCNC(=O)C(C(c2ccccc2)c2ccccc2)NC(=O)C(C)N(C)C1=O (centres unmarked) [compound 29] | –
– | 5.00 to 7.00 | CCC(C)C1NCCCCCCCCNC(=O)C(Cc2cccc(Cl)c2)NC(=O)C2(CCCC2)NC1=O (centres unmarked) [compound 363] | pKi [1, 3]: 6.00 to 7.00
– | 5.00 to 7.00 | CC1C(=O)NC(Cc2ccc(F)cc2)C(=O)NCCC(C)(C)c2ccccc2OCCNC(C2CC2)C(=O)N1C (centres unmarked) [compound 378] | –
– | > 7.00 | CC1C(=O)NC(Cc2ccc(F)cc2)C(=O)NCCCc2cc(Cl)ccc2OCCNC(C2CC2)C(=O)N1C (centres unmarked) [compound 373] | –
7.00 to 8.00 | – | CC(C)CC1NCCOc2ccccc2C=CCNC(=O)C(Cc2cccc3ccccc23)NC(=O)C2(CCCC2)NC1=O (centres unmarked) [compound 22] | –
– | 5.00 to 7.00 | CCC(C)C1NCCOc2ccccc2C=CCNC(=O)C(Cc2cccc(Cl)c2)NC(=O)C2(CCCC2)NC1=O (centres unmarked) [compound 380] | –
– | > 7.00 | CCC(C)C1NCCOc2ccccc2C#CCNC(=O)C(Cc2cccc(Cl)c2)NC(=O)C2(CCCC2)NC1=O (centres unmarked) [compound 381] | –
– | – | CC(C)C1NCCOc2ccccc2C=CCNC(=O)C(Cc2ccccc2)NC(=O)C2(CCCC2)NC1=O (centres unmarked) [compound 200] | pKi [1, 6]: 7.00 to 8.00
< 5.00 | – | CC(C)CC1NCCC#CCCNC(=O)C(Cc2ccccc2)NC(=O)C2(CCCC2)NC1=O (centres unmarked) [compound 106] | –
– | – | CCCC1C(=O)N(C)C(C)C(=O)NC(Cc2ccccc2)C(=O)NCCCc2ccccc2OCCN1C(C)=O (centres unmarked) [compound 202] | pKi [1, 6]: < 5.00

pKi [1, 4] | pKi [1, 5] | SMILES | other results
– | > 7.00 | COC(C)C1NCCOc2ccccc2CCCNC(=O)C(Cc2ccc(F)cc2)NC(=O)C(C)N(C)C1=O (centres unmarked) [compound 335] | –
< 5.00 | – | CCCC1NCCOc2ccccc2CCCNC(=O)C(Cc2ccccc2)NC(=O)C(CCC(=O)O)NC1=O (centres unmarked) [compound 70] | –
5.00 to 7.00 | – | CCC(C)C1NCCc2ccccc2C=CCNC(=O)C(Cc2ccccc2)NC(=O)C(C)N(C)C1=O (centres unmarked) [compound 187] | –
< 5.00 | – | CCC(C)C1NCCCCC=CCNC(=O)C(Cc2ccccc2)NC(=O)C(C)N(C)C1=O (centres unmarked) [compound 181] | –
5.00 to 7.00 | – | CN1CC(=O)NC(Cc2ccccc2)C(=O)NCCCc2ccccc2OCCNC(Cc2ccccc2)C1=O (centres unmarked) [compound 75] | –
– | > 7.00 | O=C1NC2(CCCC2)C(=O)NC(Cc2cccc(Cl)c2)C(=O)NCC=Cc2ccccc2OCCNC1Cc1ccsc1 (centres unmarked) [compound 341] | –
– | 5.00 to 7.00 | CC1C(=O)NC(Cc2ccc(F)cc2)C(=O)NCCCCCOCCNC(C2CC2)C(=O)N1C (centres unmarked) [compound 398] | –
– | 5.00 to 7.00 | CC1C(=O)NC(Cc2ccc(F)cc2)C(=O)NCCCc2ccc(NS(C)(=O)=O)cc2OCCNC(C2CC2)C(=O)N1C (centres unmarked) [compound 357] | –
– | 5.00 to 7.00 | CCC(C)C1NCCOc2cccnc2CCCNC(=O)C(Cc2cccc(Cl)c2)NC(=O)C2(CCCC2)NC1=O (centres unmarked) [compound 385] | –
– | – | O=C1NC2(CCCC2)C(=O)NC(Cc2ccccc2)C(=O)NCC=Cc2ccccc2OCCNC1Cc1c[nH]cn1 (centres unmarked) [compound 219] | pKi [1, 6]: 5.00 to 7.00
– | 5.00 to 7.00 | CCC(C)C1NCCCc2ccccc2C=CCCNC(=O)C(Cc2cccc(Cl)c2)NC(=O)C2(CCCC2)NC1=O (centres unmarked) [compound 361] | –
– | – | CCC(C)C1NCCOc2ccccc2CCCNC(=O)C(Cc2ccc(F)cc2)NC(=O)C(COCc2ccccc2)N(C)C1=O (centres unmarked) [compound 440] | pKi ([1]; Table 3D, binding at human ghrelin receptor, [125I]-ghrelin displacement, read-out: Ki): 5.00 to 7.00
< 5.00 | – | O=C1NCC=Cc2ccccc2OCCNC(C(c2ccccc2)c2ccccc2)C(=O)NC2(CCCC2)C(=O)NC1Cc1ccccc1 (centres unmarked) [compound 129] | –
– | > 7.00 | CC1C(=O)NC(Cc2ccc(F)cc2)C(=O)NCCCc2cc(F)ccc2OCCNC(C2CC2)C(=O)N1C (centres unmarked) [compound 355] | –
– | 5.00 to 7.00 | CCC(C)C1NCCOc2ccccc2C2CC2CNC(=O)C(Cc2cccc(Cl)c2)NC(=O)C2(CCCC2)NC1=O (centres unmarked) [compound 387] | –
5.00 to 6.00 | – | CC(C)CC1NCCOc2cccnc2CCCNC(=O)C(Cc2ccccc2)NC(=O)C2(CCCC2)NC1=O (centres unmarked) [compound 109] | –
< 5.00 | – | CCCC1NCCOc2ccccc2CCCNC(=O)C(Cc2ccccc2)NC(=O)C(CCC(=O)O)NC1=O (centres unmarked) [compound 71] | –
5.00 to 7.00 | – | O=C1NC2(CCCC2)C(=O)NC(Cc2ccccc2)C(=O)NCC=Cc2ccccc2OCCNC1Cc1cscn1 (centres unmarked) [compound 134] | –
– | 5.00 to 7.00 | CC1C(=O)NC(Cc2ccc(F)cc2)C(=O)NCCOc2cccc(c2)OCCNC(C2CC2)C(=O)N1C (centres unmarked) [compound 377] | –
– | 5.00 to 7.00 | CCC(C)C1NCCOCC=CCCNC(=O)C(Cc2cccc(Cl)c2)NC(=O)C2(CCCC2)NC1=O (centres unmarked) [compound 360] | –
< 5.00 | – | CC(C)CC1NCc2cccc(c2)CCNC(=O)C(Cc2ccccc2)NC(=O)C2(CCCC2)NC1=O (centres unmarked) [compound 107] | –
< 5.00 | – | CC(C)CC1NCCOc2ccccc2CCCNC(=O)C(C)NC(=O)C2(CCCC2)NC1=O (centres unmarked) [compound 87] | –
– | – | CC(=O)N1CCOc2ccccc2C=CCNC(=O)C(Cc2ccccc2)NC(=O)C2(CCCC2)NC(=O)C1CC(C)C (centres unmarked) [compound 204] | pKi [1, 6]: < 5.00
5.00 to 7.00 | – | CCCC1NCc2ccccc2Sc2ccccc2CNC(=O)C(Cc2ccccc2)NC(=O)CN(C)C1=O (centres unmarked) [compound 77] | –
< 5.00 | – | CCCC1NCCOc2ccccc2CCCNC(=O)C(Cc2ccccc2)NC(=O)C(CCCCN)NC1=O (centres unmarked) [compound 69] | –
– | – | CCCC1C(=O)N(C)C(C)C(=O)NC(Cc2ccccc2)C(=O)NCCCc2ccccc2OCCN1C (centres unmarked) [compound 201] | pKi [1, 6]: 5.00 to 7.00
– | – | O=C1NC2(CCCC2)C(=O)NC(Cc2ccccc2)C(=O)NCC=Cc2ccccc2OCCNC1Cc1ccccn1 (centres unmarked) [compound 210] | pKi [1, 6]: < 6.00
